From PubChem BioAssay (NCI)
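A five-concentration, 48-hour dose response in 96-well plates underlies each endpoint, interpolated linearly between surrounding concentrations. The concentration for 50% growth inhibition is given as GI50. TGI marks complete inhibition of growth.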

Columns and labels:
Experiment in all cases: NCI tumour cell line growth inhibition, 48 h
OVCAR-4 ovarian = system: OVCAR-4 ovarian
SK-OV-3 ovarian = system: SK-OV-3 ovarian
SK-MEL-28 melanoma = system: SK-MEL-28 melanoma
ACHN renal = system: ACHN renal
MOLT-4 leukemia = system: MOLT-4 leukemia
DU-145 prostate = system: DU-145 prostate
UACC-62 melanoma = system: UACC-62 melanoma
SN12C renal = system: SN12C renal
SF-295 CNS = system: SF-295 CNS
CAKI-1 renal = system: CAKI-1 renal
SK-MEL-5 melanoma = system: SK-MEL-5 melanoma
OVCAR-5 ovarian = system: OVCAR-5 ovarian
MALME-3M melanoma = system: MALME-3M melanoma
NCI-H226 lung = system: NCI-H226 lung
T-47D breast = system: T-47D breast
SF-539 CNS = system: SF-539 CNS
HOP-92 NSCLC = system: HOP-92 NSCLC
SNB-75 CNS = system: SNB-75 CNS
NCI-H460 lung = system: NCI-H460 lung
PC-3 prostate = system: PC-3 prostate
CCRF-CEM leukemia = system: CCRF-CEM leukemia
OVCAR-8 ovarian = system: OVCAR-8 ovarian
NCI-H522 lung = system: NCI-H522 lung
SF-268 CNS = system: SF-268 CNS
KM12 colon = system: KM12 colon
TK-10 renal = system: TK-10 renal
A498 renal = system: A498 renal
HCT-15 colon = system: HCT-15 colon
HT29 colon = system: HT29 colon
NCI-H23 lung = system: NCI-H23 lung
EKVX NSCLC = system: EKVX NSCLC
IGROV1 ovarian = system: IGROV1 ovarian
HL-60(TB) leukemia = system: HL-60(TB) leukemia
SW-620 colon = system: SW-620 colon
MDA-MB-435 = system: MDA-MB-435
BT-549 breast = system: BT-549 breast

Question: Clc1cc(Cl)cc(N2N=C(c3cccc(Nc4ccncc4)c3)CC2c2ccccc2)c1 (configuration not stated) was tested. Which GI50 (OVCAR-4 ovarian) did it give?
Answer: 1.86 µM

Question: And the TGI (OVCAR-4 ovarian)?
Answer: 3.87 µM

Question: What about the GI50 (SK-OV-3 ovarian) of the same compound?
Answer: 13.1 µM

Question: What about the TGI (SK-OV-3 ovarian) of the same compound?
Answer: 31.9 µM

Question: What about the GI50 (SK-MEL-28 melanoma) of the same compound?
Answer: 1.76 µM

Question: What about the TGI (SK-MEL-28 melanoma) of the same compound?
Answer: 3.21 µM

Question: What about the GI50 (ACHN renal) of the same compound?
Answer: 1.9 µM

Question: And the TGI (ACHN renal)?
Answer: 3.89 µM

Question: And the GI50 (MOLT-4 leukemia)?
Answer: 2.29 µM

Question: And the TGI (MOLT-4 leukemia)?
Answer: 5.95 µM

Question: And the GI50 (DU-145 prostate)?
Answer: 2.54 µM

Question: And the TGI (DU-145 prostate)?
Answer: 6.51 µM

Question: What about the GI50 (UACC-62 melanoma) of the same compound?
Answer: 1.74 µM

Question: And the TGI (UACC-62 melanoma)?
Answer: 3.24 µM

Question: What about the GI50 (SN12C renal) of the same compound?
Answer: 1.66 µM

Question: What about the TGI (SN12C renal) of the same compound?
Answer: 3.12 µM

Question: And the GI50 (SF-295 CNS)?
Answer: 1.65 µM

Question: What about the TGI (SF-295 CNS) of the same compound?
Answer: 3.08 µM

Question: What about the GI50 (CAKI-1 renal) of the same compound?
Answer: 1.57 µM

Question: What about the TGI (CAKI-1 renal) of the same compound?
Answer: 3.36 µM

Question: What about the GI50 (SK-MEL-5 melanoma) of the same compound?
Answer: 1.78 µM

Question: And the TGI (SK-MEL-5 melanoma)?
Answer: 3.23 µM

Question: What about the GI50 (OVCAR-5 ovarian) of the same compound?
Answer: 2.56 µM

Question: And the TGI (OVCAR-5 ovarian)?
Answer: 8.74 µM

Question: What about the GI50 (MALME-3M melanoma) of the same compound?
Answer: 1.67 µM

Question: What about the TGI (MALME-3M melanoma) of the same compound?
Answer: 3.16 µM

Question: And the GI50 (NCI-H226 lung)?
Answer: 14 µM

Question: And the TGI (NCI-H226 lung)?
Answer: 38.7 µM

Question: And the GI50 (T-47D breast)?
Answer: 1.73 µM

Question: And the TGI (T-47D breast)?
Answer: 4.2 µM

Question: What about the GI50 (SF-539 CNS) of the same compound?
Answer: 1.72 µM

Question: And the TGI (SF-539 CNS)?
Answer: 3.2 µM

Question: And the GI50 (HOP-92 NSCLC)?
Answer: 1.49 µM

Question: What about the TGI (HOP-92 NSCLC) of the same compound?
Answer: 3.07 µM

Question: What about the GI50 (SNB-75 CNS) of the same compound?
Answer: 1.45 µM

Question: And the TGI (SNB-75 CNS)?
Answer: 5.38 µM

Question: What about the GI50 (NCI-H460 lung) of the same compound?
Answer: 1.8 µM

Question: What about the TGI (NCI-H460 lung) of the same compound?
Answer: 3.37 µM

Question: What about the GI50 (PC-3 prostate) of the same compound?
Answer: 1.87 µM

Question: What about the TGI (PC-3 prostate) of the same compound?
Answer: 5.15 µM

Question: What about the GI50 (CCRF-CEM leukemia) of the same compound?
Answer: 2.92 µM

Question: And the TGI (CCRF-CEM leukemia)?
Answer: > 100 µM

Question: And the GI50 (OVCAR-8 ovarian)?
Answer: 2.07 µM

Question: What about the TGI (OVCAR-8 ovarian) of the same compound?
Answer: 4.56 µM

Question: And the GI50 (NCI-H522 lung)?
Answer: 1.79 µM

Question: What about the TGI (NCI-H522 lung) of the same compound?
Answer: 3.6 µM

Question: What about the GI50 (SF-268 CNS) of the same compound?
Answer: 1.99 µM

Question: And the TGI (SF-268 CNS)?
Answer: 4.63 µM

Question: And the GI50 (KM12 colon)?
Answer: 1.86 µM

Question: What about the TGI (KM12 colon) of the same compound?
Answer: 3.7 µM

Question: What about the GI50 (TK-10 renal) of the same compound?
Answer: 2.02 µM

Question: And the TGI (TK-10 renal)?
Answer: 3.98 µM

Question: What about the GI50 (A498 renal) of the same compound?
Answer: 1.81 µM

Question: And the TGI (A498 renal)?
Answer: 4.42 µM

Question: What about the GI50 (HCT-15 colon) of the same compound?
Answer: 1.66 µM

Question: And the TGI (HCT-15 colon)?
Answer: 3.31 µM

Question: And the GI50 (HT29 colon)?
Answer: 1.8 µM

Question: And the TGI (HT29 colon)?
Answer: 3.73 µM

Question: What about the GI50 (NCI-H23 lung) of the same compound?
Answer: 1.81 µM

Question: And the TGI (NCI-H23 lung)?
Answer: 3.91 µM

Question: And the GI50 (EKVX NSCLC)?
Answer: 1.7 µM

Question: And the TGI (EKVX NSCLC)?
Answer: 4.23 µM

Question: What about the GI50 (IGROV1 ovarian) of the same compound?
Answer: 1.54 µM

Question: What about the TGI (IGROV1 ovarian) of the same compound?
Answer: 3.04 µM

Question: And the GI50 (HL-60(TB) leukemia)?
Answer: 1.9 µM

Question: And the TGI (HL-60(TB) leukemia)?
Answer: 5.2 µM

Question: What about the GI50 (SW-620 colon) of the same compound?
Answer: 1.85 µM

Question: And the TGI (SW-620 colon)?
Answer: 3.73 µM

Question: What about the GI50 (MDA-MB-435) of the same compound?
Answer: 1.72 µM

Question: And the TGI (MDA-MB-435)?
Answer: 3.36 µM

Question: What about the GI50 (BT-549 breast) of the same compound?
Answer: 6.23 µM

Question: What about the TGI (BT-549 breast) of the same compound?
Answer: 28.4 µM
